Assay results as given in article PMC3483115 (The Journal of General Physiology, 2012).
Ends that are not written are not given here. MBP = maltose-binding protein (N-terminal fusion)

Legend:
[1] = system: TRPV1 K155A; type: cell-based, rat; details: repeated 1 µM capsaicin, whole cell, extracellular Ca^2+
[2] = system: TRPV1 K155A; details: ref Lishko et al., 2007; cited from earlier work
[3] = target: T1, Ca^2+–CaM (Homo sapiens, UniProt P0DP23); details: ref Lishko et al., 2007; cited from earlier work
[4] = target: T1, Ca^2+–CaM; test: CaM-agarose pulldown of MBP-fused TRPV1-CT35 peptides; type: binding; details: CaM-agarose pulldown (Fig. S2), pH 7.5, 1 mM CaCl2 or EGTA, 4°C, 1 h
[5] = target: T1, Ca^2+–CaM; test: SEC-based comparison of Ca^2+–CaM affinity, TRPV1-ARD vs. TRPV1-CT; type: binding; details: suggested by SEC; affinity could not be measured
[6] = system: CaM; test: SEC of TRPV1-CT peptides mixed with CaM; type: binding; details: Superdex 75, in the presence of Ca^2+, data shown for TRPV1-CT44
[7] = system: TRPV1; details: ref Liu et al., 2005, Lishko et al., 2007, Lukacs et al.; cited from earlier work

COc1cc(CNC(=O)CCCC/C=C/C(C)C)ccc1O [capsaicin]
tachyphylaxis and activation kinetics, K155A TRPV1 [1]: little tachyphylaxis and slower activation kinetics | capsaicin sensitivity of K155A TRPV1 [2]: normal capsaicin sensitivity

K155A: TRPV1 with mutation K155A in the TRPV1-ARD
Ca^2+–CaM binding to TRPV1-ARD with mutation [3]: abolish Ca^2+–CaM binding to TRPV1-ARD

L796P ({MBP}-EGVKRTLSFSLRSGRVSGRNWKNFALVPLPRDAST)
Ca^2+–CaM binding of L796P MBP-TRPV1-CT35 (pulldown) [4]: did not significantly disrupt binding of TRPV1-CT35 to Ca^2+–CaM

TRPV1-ARD: N-terminal ankyrin repeat domain of TRPV1 (rat or chicken)
affinity of TRPV1-ARD for Ca^2+–CaM relative to TRPV1-CT [5]: the affinity is likely significantly lower than that of the TRPV1-CT

TRPV1-CT35: 35-residue CaM-binding peptide from the TRPV1-CT (residues 767–801) (EGVKRTLSFSLRSGRVSGRNWKNFALVPLLRDAST; left off: MBP, N-terminal, cleaved)
shift in elution volume with CaM [6]: undergo a large shift in elution volume when mixed with CaM in the presence of Ca^2+, confirming that a complex is formed

phosphatidylinositol-4,5-bisphosphate [PIP2]
effect of PIP2 on TRPV1 [7]: can also potentiate TRPV1
